Laboratory results from US5972893A, “Method of treating hyperprolactinemia and prolactinomas” (Cedars-Sinai Medical Center, priority 1997, dated 1999).
Positions of bridges follow the written chain, without caps; N, C: chain ends. Non-standard residues stand in square brackets, D forms with d. Residues, ends and D or L forms follow the SMILES beside them.

Legend:
[1] = tested on: cells derived from prolactin-secreting pituitary adenomas; assay: Reduction of prolactin secretion from prolactinoma cell cultures; type: cell-based, human; conditions: for effect on prolactin production (in words) / suppression of prolactin release: large tumor 4 cell cultures; for effect on prolactin release (in words): tumor 1 adenomatous cell cultures, 10-100 nM; for effect on prolactin release (in words) / suppression of prolactin secretion: 3 hours; for response of cells from the four large male tumors (in words): tumors 1, 2, 3 and 4 (macroprolactinomas of male patients); for suppression of prolactin secretion: tumor 1 cell cultures
human SSTR-3 = human SSTR-3 (Homo sapiens, UniProt P32745); assay: Somatostatin receptor binding assay, hSSTR-3
human SSTR-3, sequence (P32745 whole entry): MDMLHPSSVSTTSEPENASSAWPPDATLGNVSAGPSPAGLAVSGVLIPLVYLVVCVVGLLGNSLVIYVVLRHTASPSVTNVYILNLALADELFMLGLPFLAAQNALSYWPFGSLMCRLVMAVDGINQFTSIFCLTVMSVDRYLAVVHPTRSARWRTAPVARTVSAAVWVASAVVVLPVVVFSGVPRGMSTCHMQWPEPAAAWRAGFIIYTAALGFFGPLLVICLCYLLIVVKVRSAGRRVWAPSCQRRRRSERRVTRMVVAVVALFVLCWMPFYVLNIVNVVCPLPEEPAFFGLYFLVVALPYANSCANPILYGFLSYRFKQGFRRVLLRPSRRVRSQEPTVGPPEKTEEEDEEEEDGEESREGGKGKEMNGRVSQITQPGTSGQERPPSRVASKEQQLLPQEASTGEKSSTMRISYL

human SSTR-1 = human SSTR-1 (Homo sapiens, UniProt P30872); assay: Somatostatin receptor binding assay, hSSTR-1
human SSTR-1, sequence (P30872 whole entry): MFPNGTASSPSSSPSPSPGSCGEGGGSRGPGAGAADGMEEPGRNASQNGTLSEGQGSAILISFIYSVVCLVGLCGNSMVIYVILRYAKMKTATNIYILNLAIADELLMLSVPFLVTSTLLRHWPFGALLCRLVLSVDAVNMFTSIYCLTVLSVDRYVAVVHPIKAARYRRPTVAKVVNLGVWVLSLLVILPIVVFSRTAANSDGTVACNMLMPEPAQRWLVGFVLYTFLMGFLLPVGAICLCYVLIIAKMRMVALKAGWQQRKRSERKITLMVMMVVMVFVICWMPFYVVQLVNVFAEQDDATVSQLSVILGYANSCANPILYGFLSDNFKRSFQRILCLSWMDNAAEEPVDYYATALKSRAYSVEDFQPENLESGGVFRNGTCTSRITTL

SMILES	effect on prolactin release (in words) [1]	response of cells from the four large male tumors (in words) [1]	also measured
CC[C@@H]1NC(=O)[C@H](CCCCN)NC(=O)[C@@H](Cc2c[nH]c3ccccc23)NC(=O)[C@H](Cc2ccc(O)cc2)NC(=O)[C@@H](NC(=O)[C@@H](Cc2ccccc2)NS(=O)(=O)CCN2CCN(CCO)CC2)CSSC[C@@H](C(=O)N[C@H](C(N)=O)[C@@H](C)O)NC1=O [BIM-23197]	did not affect prolactin release	failed to respond	effect on prolactin production (in words) [1]: modestly stimulated prolactin production
CC(C)[C@@H]1NC(=O)[C@H](CCCCN)NC(=O)[C@@H](Cc2c[nH]c3ccccc23)NC(=O)[C@H](Cc2ccc(O)cc2)NC(=O)[C@@H](NC(=O)[C@H](N)Cc2ccc3ccccc3c2)CSSC[C@@H](C(=O)N[C@H](C(N)=O)[C@@H](C)O)NC1=O [Lanreotide]	did not affect prolactin release	failed to respond	Ki (human SSTR-3): 97.9 nM; Ki (human SSTR-1): 2410 nM
CC[C@@H]1NC(=O)[C@H](CCCCN)NC(=O)[C@@H](Cc2c[nH]c3ccccc23)NC(=O)[C@H](Cc2ccc(O)cc2)NC(=O)[C@@H](NC(=O)[C@H](N)Cc2ccccc2)CSSC[C@@H](C(=O)N[C@H](C(N)=O)[C@@H](C)O)NC1=O [BIM-23023]	did not affect prolactin release	–	–
C[C@@H](O)[C@@H]1NC(=O)[C@H](CCCCN)NC(=O)[C@@H](Cc2c[nH]c3ccccc23)NC(=O)[C@H](Cc2ccccc2)NC(=O)[C@@H](NC(=O)[C@H](N)Cc2ccccc2)CSSC[C@@H](C(=O)N[C@H](CO)[C@@H](C)O)NC1=O [Octreotide]	–	failed to respond	–
C[C@@H](O)[C@@H]1NC(=O)[C@H](CCCCN)NC(=O)[C@@H](Cc2c[nH]c3ccccc23)NC(=O)[C@H](Cc2ccccc2)NC(=O)[C@H](Cc2ccccc2)NC(=O)[C@@H](N)CSSC[C@@H](C(N)=O)NC(=O)[C@H](Cc2ccccc2)NC1=O [BIM-23268, H-Cys-Phe-Phe-D-Trp-Lys-Thr-Phe-Cys-NH2] (H-CFF[dW]KTFC-NH2; disulfide 1-8)	–	suppression of prolactin secretion	suppression of prolactin ([1]; large tumor 3 cell cultures, 10 nM and 100 nM, dose dependent, p<0.05): up to 29%; suppression of prolactin release ([1]; p<0.05): more than 30%; suppression of prolactin secretion ([1]; 10 nM, p<0.05): 36%; inhibition of prolactin release versus controls ([1]; tumor 2 cell cultures, 10 nM, p<0.0005): 38%
C[C@@H](O)[C@H](NC(=O)[C@H](Cc1ccccc1)NC(=O)[C@@H](NC(=O)[C@H](CCCCN)NC(=O)[C@@H](Cc1c[nH]c2ccccc12)NC(=O)[C@H](Cc1ccccc1)NC(=O)[C@H](Cc1ccccc1)NC(=O)[C@H](N)Cc1ccccc1)[C@@H](C)O)C(N)=O [BIM-23052, H-D-Phe-Phe-Phe-D-Trp-Lys-Thr-Phe-Thr-NH2] (H-[dF]FF[dW]KTFT-NH2)	–	suppression of prolactin secretion	suppression of prolactin release ([1]; p<0.05): more than 30%; suppression of prolactin secretion ([1]; 10 nM, p<0.05): 33%
CC[C@@H]1NC(=O)[C@H](CCCCN)NC(=O)[C@@H](Cc2c[nH]c3ccccc23)NC(=O)[C@H](Cc2ccc(O)cc2)NC(=O)[C@@H](NC(=O)[C@@H](Cc2ccccc2)NC(=O)CN2CCN(CCO)CC2)CSSC[C@@H](C(=O)N[C@H](C(N)=O)[C@@H](C)O)NC1=O [BIM-23190]	did not affect prolactin release	failed to respond	effect on prolactin production (in words) [1]: modestly stimulated prolactin production
